# From publication PMC8750417, “Intracellular Amplifiers of Reactive Oxygen Species Affecting Mitochondria as Radiosensitizers” (Cancers, 2021)
# Several values for one entry are separate records, joined by “and”; a condition that tells them apart may be missing. Identical values can stand only once. Like-named read-outs stand apart in the source and are kept apart here.
# What was measured:
# Format in all cases: cell-based, human
# SAS and FaDu cells = experiment: Semi-quantitative radiosensitization grade over SAS and FaDu; parameters: key: no radiosensitization (“-”); weak effect or effect in one cell line only (“+/−”); clear/strong (“+”) radiosensitization; settings: clonogenic survival with irradiation
# Protocol: defined low density (150-300 cells in 1 ml per well). After 8 h of incubation to allow cell adherence, 50% of the supernatant was exchanged by media containing the respective prodrugs at 2x concentration and exposed for 48 h. Treatment was then terminated by medium removal, and cells were allowed to grow for a period of ≥5-6 cell divisions estimated from the cell line-specific doubling times of the respective untreated controls (~7 days for SAS and ~10 days for FaDu cells). Control cells were always handled in parallel to the treated cells and thus exposed to the corresponding DMSO concentration(s). After the defined growth intervals, cells were fixed, stained and colonies of >50 cells were manually counted at low magnification to calculate plating efficiencies as the number of counted colonies relative to the number of seeded cells. Drug effect on clonogenic survival was then estimated by normalizing the colony formation of control cells to 1 (Table S9).
# The colony formation assay was also applied for monitoring radioresponse. Here, increasing numbers of single cells relative to the irradiation dose (0-10 Gy) were seeded into 6-well plates (150-2400 SAS cells/well and 300-4800 FaDu cells/well).
# Cells were treated with the drugs upon attachment as described. The total period of drug exposure was 48 h, and single dose irradiation was carried out 24 h after addition of the compounds. X-ray was performed at room temperature with a YxlonY.TU 320 system (Yxlon.international, 200 kV, 0.5 mm Cu filter) and a dose rate of ~1.3 Gy/min. Drug exposure was terminated by medium exchange and cultures were then incubated for the additional time period highlighted earlier.
# Plating efficiencies were assessed and normalized for each treatment arm to the respective unirradiated control. Data were reproduced (N=3 each with n=3 wells per experiment and treatment condition). The relative clonogenic cell survival (= survival fraction, SF) was then plotted as function of the irradiation dose, and clonogenic survival curves were fitted employing the linear quadratic model as described
# A2780 cells = experiment: Cell viability, MTT assay, A2780
# Protocol: (§1) Determination of viability of cells in the presence of prodrugs and controls A2780 and BL-2 cells The medium was removed, and the cells were washed two times with DPBS, trypsinated, and resuspended in RPMI 1640 medium (A2780) supplemented with 5% FBS (for 24 h and 48 h assay) or 10% FBS (for 96 h assay) , 1% L-glutamine, and 1% penicillin/streptomycin.
# (§2) A2780 cells: This suspension was spread in the wells of a 96 -well microtiter plate (25000 cells for A2780 per well per 100 μL) and left standing at 37 °C in the chamber filled with CO2 (5%) for overnight. Stock solutions of prodrugs of different concentra tions (1 μL, solvent dmso, final concentrations in wells were 2, 5, 10, 30, 50 μM) were added to the wells and incubated for specific periods of time. Four experiments were conducted for each concentration of the prodrug. Finally, 3-(4,5-dimethylthiazol-2-yl)-2,5-diphenyltetrazolium bromide (MTT, 20 μL of the solution prepared by dissolving MTT (5 mg) in DPBS buffer (1 mL)) was added to each well, incubated for 3 h, treated with sodium dodecyl sulfate (SDS) solution (90 μL, 10% solution in 0.01 M aqueous HC l), and incubated overnight. Afterward, the intensity of the absorbance at 590 nm was measured.
# (§3) MTT is converted in live cells to blue dye with the absorbance maximum λ max at 590 nm.
# The absorbance at 690 nm was taken as a baseline value. The baseline corrected absorbance at 590 nm (A(590 nm) − A(690 nm)) was applied to calculate the relative number of viable cells. IC50 values were determined by fitting the experimental data expressing the number of viable cells (%, Y-axis) versus drug concentration (μM, X-axis) with a line curve and the X-axis value corresponding to 50% viability was considered as IC50 value according to the line curve (Figure S50, Table S2). […]
# BL-2 cells = experiment: Cell viability, MTT assay, BL-2
# Protocol: as §1, §2, §3
# The absorbance at 690 nm was taken as a baseline value. The baseline corrected absorbance at 590 nm (A(590 nm) − A(690 nm)) was applied to calculate the relative number of viable cells. IC50 values were determined by fitting the experimental data expressing the number of viable cells (%, Y-axis) versus drug concentration (μM, X-axis) with a line curve and the X-axis value corresponding to 50% viability was considered as IC50 value according to the line curve (Figure S50, Table S2).
# BL-2 cells: The cells were centrifuged, the medium was removed, and the cells were washed two times with DPBS and re-suspended in RPMI 1640 medium containing 5% (48 h incubation) or 10% FBS (96 h incubation), 1% L-glutamine, and 1% penicillin/ streptomycin. This suspension was spread in the wells of a 96-well microtiter plate (50000 cells per well per 100 μL). Other steps were identical to those was described in determination of viability of adherent cells (given above) (Table S3).
# FaDu cells = experiment: Cytotoxicity MTT assay, FaDu; settings: for EC50: read-out: 50% cell survival (EC50)
# Protocol: Optimization of concentration of prodrugs and controls / MTT assay
# The MTT assay was also applied to assess the impact of various drugs (0.01-100 µM) on the viability of the two human head and neck squamous carcinoma cell (HNSCC) lines SAS and FaDu as well as retinal pigment epithelial ARPE-19 cells and human fibroblasts (HF). Cells were seeded into 96-well plates at concentrations of 4000 and 2000 cells per […]
# h before exposure to the drugs. All drug dilutions were prepared from 20 mM stock solutions in DMSO. The final DMSO concentration was set to 0.5% in all sample s including control. After completion of the treatment, the wells were processed according to the routine MTT protocol as described above; the formazan absorbance was then measured on a Biotek Epoch Microplate Spectrophotometer at 590 nm and corrected for the background signal at 620 nm. N≥3 independent experiments were performed for each drug candidate, cell type and treatment interval. Cell survival was recorded as function of the drug concentration, and dose-response curves were fitted with the Boltzmann equation where appropriate. We calculated the half-maximal response (EC50) as well as the EC20 (80% survival) according to the line curve (see Tables S6-S8). EC20-values were used as a basis to select the compound-specific non-toxic drug concentrations for combination with radiotherapy.
SMILES,Radiosensitization (SAS and FaDu cells; 10 µM),Radiosensitization (SAS and FaDu cells; 25 µM),"cell viability at which the effect is saturated (A2780 cells; A2780, 24 h)","IC50 (A2780 cells; A2780, 24 h incubation)","cell viability at which the effect is saturated (A2780 cells; A2780, 48 h)","IC50 (A2780 cells; A2780, 48 h incubation)","cell viability at which the effect is saturated (A2780 cells; A2780, 96 h)","IC50 (A2780 cells; A2780, 96 h incubation)","IC50 (BL-2 cells; BL-2, 48 h incubation)","IC50 (BL-2 cells; BL-2, 96 h incubation)",80% cell survival (EC20) (FaDu cells; 24h),EC50 (FaDu cells; 24h),80% cell survival (EC20) (FaDu cells; 48h),EC50 (FaDu cells; 48h),Radiosensitization (SAS and FaDu cells; 1 µM),Radiosensitization (SAS and FaDu cells; 2.5 µM)
CC1(C)OB(c2ccc(COC(=O)N(Cc3cn(Cc4ccc(Cn5cc(Cc6ccccc6)nn5)cc4)nn3)[c-]3cccc3)cc2)OC1(C)C.[Fe+2].c1cc[cH-]c1 [2c],+/−,+,70%,> 30 µM,50%,> 30 µM,43%,4 ± 0.5 µM,40.1 ± 6.4 µM,5.7 ± 2.7 µM,> 50 µM,> 50 µM,18.0 ± 5.1 µM,> 50 µM,,
CC1(C)OB(c2ccc(COC(=O)N(Cc3cccc(CN4CCCCC4)c3)[c-]3cccc3)cc2)OC1(C)C.[Fe+2].c1cc[cH-]c1 [5b],,,,,,7 ± 2 µM,,7 ± 2 µM,5 ± 2 µM,5 ± 3 µM,11.5 ± 1.3 µM,26.3 ± 3.4 µM,,19.8 ± 0.3 µM,+,+
CCOC(=O)CCCCCn1cc(CN(C(=O)OCc2ccc(B3OC(C)(C)C(C)(C)O3)cc2)[c-]2cccc2)nn1.[Fe+2].c1cc[cH-]c1 [compound 1],,,,,,32 ± 3 µM,,30 ± 5 µM,35 ± 2 µM,16.9 µM and 17 µM,,,,,,
"[Fe+2].c1cc[cH-]c1.c1cc[cH-]c1 [compound 6, ferrocene]",,-,,> 100 µM,,> 100 µM,,> 100 µM,> 100 µM,> 100 µM,> 50 µM,> 50 µM,> 50 µM,> 50 µM,,
